Results from PubChem BioAssay (NCI).
Several values for one entry are separate records, joined by “and”; a condition that tells them apart may be missing. Identical values can stand only once.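 All cell lines were grown in 96-well plates and treated with compound for 48 hours. GI50: concentration for 50% inhibition of growth. The concentration for full growth arrest is given as TGI.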

Legend:
Assay in all cases: DTP human tumour cell line panel, 48 h
[1] = system: UACC-257 melanoma
[2] = system: SNB-19 CNS
[3] = system: U251 CNS
[4] = system: A498 renal
[5] = system: TK-10 renal
[6] = system: SF-268 CNS
[7] = system: SW-620 colon
[8] = system: SNB-75 CNS
[9] = system: SF-539 CNS
[10] = system: CCRF-CEM leukemia

Row | SMILES | TGI [1] [µM] | TGI [2] [µM] | TGI [3] [µM] | TGI [4] [µM] | TGI [5] [µM] | TGI [6] [µM] | TGI [7] [µM] | TGI [8] | TGI [9] | TGI [10] | GI50 [1] | GI50 [2] [µM] | GI50 [3] | GI50 [4] | GI50 [5] | GI50 [6] | GI50 [7] [µM] | GI50 [8] | GI50 [9] [µM] | GI50 [10]
1 | Nc1ccn(C2OC(COC(=O)C34CC5CC(CC(C5)C3)C4)C(O)C2O)c(=O)n1 (stereo unspecified) | > 100 | > 100 | > 100 | > 100 | > 100 | > 100 | > 100 | > 100 µM | > 100 µM | 1.87 µM | – | – | – | – | – | – | – | – | – | –
2 | Cc1nc(N2CCC3(CC2)CO[C@@H](C)[C@H]3N)c(CO)nc1Sc1ccnc(N)c1Cl | > 100 | > 100 | > 100 | > 100 | > 100 | > 100 | > 100 | > 100 µM | > 100 µM | > 100 µM | > 90400 nM | 14.8 | 3.92 µM | 657 nM | 0.336 µM | 12.8 µM | > 100 | 518 nM | 7.43 | > 91.3 µM
3 | CNC(=O)Cc1nc(-c2cccc(NS(=O)(=O)c3c(F)cccc3F)c2F)c(-c2ccnc(Nc3ccccc3)n2)s1 | – | > 50 | > 50 | 18.5 | > 40.7 | > 50 | > 50 | 49.8 µM | > 50 µM | > 50 µM | 14.2 nM | 14.3 | 22.7 µM | 2600 nM | 3.02 µM | 6.98 µM | 9.54 | 600 nM | 10.9 | 11.3 µM
4 | CC1=NN(C(=O)c2ccc([N+](=O)[O-])cc2)C(=O)C1N=Nc1ccccc1C(=O)O (stereo unspecified) | > 100 | > 100 | > 100 | > 100 | > 100 | > 100 | > 100 | > 100 µM | > 100 µM | > 100 µM | – | – | – | – | – | – | – | – | – | –
5 | COc1ccc(-c2c3c(n(C4OC(COC(C)=O)C(OC(C)=O)C(OC(C)=O)C4OC(C)=O)c(=S)c2C#N)CC(C)(C)CC3=O)cc1 (stereo unspecified) | > 100 | > 100 | > 100 | > 100 | > 100 | > 100 | > 100 | 97.9 µM and > 100 µM | 58.6 µM and > 100 µM | 57.2 µM and > 100 µM | 27900 nM and > 100000 nM | – | 34.9 µM and > 100 µM | 42100 nM and > 100000 nM | 39.5 µM and > 100 µM | 38.9 µM and > 100 µM | – | 25000 nM and 67800 nM | – | 21.5 µM and 71.7 µM
6 | OCC(O)c1nc2ccc3[nH]ncc3c2c2c1CCCC2 (stereo unspecified) | > 50 | > 50 | > 50 | 1.75 | > 50 | 4.64 | > 50 | 1.6 µM | 2.4 µM | > 50 µM | 1800 nM | 1.58 | 1.65 µM | 876 nM | 1.42 µM | 1.22 µM | 1.3 | 849 nM | 0.957 | 1.62 µM
7 | COc1ccc(C(=O)c2cc3c(N)c(C(=O)Nc4ccc(C)cc4)sc3nc2C)cc1 | > 100 | 30.9 | 28.8 | 9.59 | 25.2 | 48.7 | > 100 | 5.99 µM | 9.38 µM | > 100 µM | 20400 nM | 4.22 | 3.6 µM | 1500 nM | 6.81 µM | 5.66 µM | 3.61 | 571 nM | 2.5 | 3.76 µM
8 | COc1cc(Nc2nc3ccccc3cc2C(=O)Nc2ccc(F)c(F)c2)cc(OC)c1OC | 6.28 | > 100 | > 100 | 8.25 | > 100 | > 100 | > 100 | 9.35 µM | > 100 µM | > 100 µM | 2600 nM | 3.55 | 3.36 µM | 2390 nM | 4.52 µM | 3.96 µM | 3.53 | 2270 nM | 3.65 | 3.12 µM
9 | CN1C(=O)N[C@H]2[C@@H]3NC(=O)c4ccc(Br)n4[C@@H]3C[C@]21O | 1.52 | 0.576 | 1.55 | 1.17 | 4.51 | 2.63 | 12.5 | 0.969 µM | 0.447 µM | 0.327 µM | 108 nM | 0.0351 | 0.0714 µM | 270 nM | 0.429 µM | 0.115 µM | 0.116 | 106 nM | 0.0825 | 0.0252 µM
